Data: patent US7622476B2, “Methods of using 1-allyl ergot alkaloid derivatives to treat migraines” (priority 2002, dated 2009)
Like-named read-outs stand apart in the source and are kept apart here. Marks after values point to notes of the source that are not given here.

Key:
5-HT2A receptors [1] = biological target: T1, 5-HT2A receptors (Rattus norvegicus, UniProt P14842); test: Function test based on 5-HT2A receptor tissue (rat caudal artery, 5-HT concentration-response curves); type: cell-based; conditions: for 5-HT2A pA2 value: rat caudal artery without endothelium, antagonism of 5-HT, antagonist conc. (nM)
T1 construct: characterizing 5-HT2A receptors in rat's caudal arteries; from tissue; host or cells: rat anterior caudal artery segments, endothelium stripped (male Wistar rats)
From the text: The example below describes an in-vitro function test for characterizing 5-HT2A receptors in rat's caudal arteries.
Male Wistar rats (250-300 g) were killed by suffocation. The anterior caudal artery was dissected fast and cleared of attached connective tissue. A stainless steel wire (0.3 mm in diameter) was introduced into the artery to strip off the endothelium. […] A continuous flow of a gas mixture of 95% O2 and 5% CO2 passed through the solution which was kept at a constant temperature of 37° C. […] The constant voltage was adjusted to 5 mN at the beginning of each experiment. During an equilibrium period of 120 minutes, the preparations were stimulated once after 60 minutes with 5-HT (1 μM).
Three cumulative concentration-response curves (CRC) were determined for each artery segment in these experiments for the study of partial agonists. The first CRC was obtained for 5-HT, the second that followed 60 minutes later for the partial agonist. Finally, the third CRC was obtained 10-15 minutes after the second CRC without washing with 5-HT and using the highest agonist concentration (0.3-3 μM). Additional experiments determined two CRCs at an interval of 60 minutes as described above. The first CRC was determined for 5-HT. The second CRC was determined to test the partial agonist in the presence of ketanserin. The preparations were incubated for 30 minutes with a ketanserin solution (3 nM).
The axial shift to the right of the curves determined in the presence of ketanserin was compared to the shift determined for the respective control preparation in the absence of ketanserin. In these experiments using ketanserin, two separate CRCs to 5-HT were obtained from each artery segment at a 90-minute interval. For the antagonists, the preparations were incubated 60 minutes prior to determining the second curve. Prazosin (0.1 μM) and cocaine (6 μM) were present in the solution during these experiments to block the α1-adrenoceptors and neuronal absorption of 5-HT.

5-HT2B receptors = test: Function test based on 5-HT2B receptor tissue (pig pulmonary artery, 5-HT-induced relaxation); type: cell-based; conditions: for 5-HT2B pA2 value: antagonism of 5-HT-induced relaxation, antagonist conc. (nM)
Protocol: The test was an in vitro function test to characterize 5-HT2B receptors in a pig's pulmonary artery. The pig's pulmonary artery was prepared as follows: Small branches were dissected from the pulmonary artery and cautiously freed of organ tissue and connective tissue. Up to six rings of the artery (length 2-3 mm and width 1.5-2 mm) were hung in horizontal orientation between two L-shaped platinum hooks (150 μm in diameter) and fixed in an organ bath containing 10 ml of modified Krebs-Henseleit buffer composed as follows: 118 mM NaCl, 4.7 mM KCl, 2.5 mM CaCl2, 1.2 mM MgSO4, 1.2 mM KH2PO4, 25 mM NaHCO3, and 11 mM D-glucose. A continuous flow of a gas mixture of 95% O2 and 5% CO2 passed through the solution which was kept at a constant temperature of 35° C. The preparations were connected to an isometric power converter (Hugo Sachs Elektronik, March, Germany), and voltage changes were continuously recorded. The constant voltage in stationary condition was adjusted to 20 mN at the beginning of each experiment. During an initial stabilization period of 60 minutes, the bath medium was replaced every 20 minutes and the voltage was repeatedly adjusted to 20 mN. The artery preparations were stimulated at 45-minute intervals once with KCl (30 mM) and three times with prostaglandin-F2α (PGF2α, 3 μM) until the response by contraction was visible. The undamaged condition of the endothelium was evaluated functionally by measuring the extent of endothelium-dependent relaxation following application of bradykinin (10 nM). After the third PGF2α-induced contraction had stabilized, the relaxation response was examined for 5-HT by determining a cumulative concentration-response curve in the absence and presence of the antagonist. […].
The relaxation response to the test compound was examined using the same method as with 5-HT to test for agonistic activity. The concentration of the agonist was increased in increments at the time when the response signal had reached a plateau. The plateau was typically reached within 2 to 4 minutes. The relaxation effects were expressed as a percentage of the PGF2α-induced contraction. The antagonists were added 30 minutes before the recording of the agonist concentration response curves started. The effects of the antagonists were examined in ring segments that were adjacent to the reference segments.

5-HT2A receptors [2] = biological target: T1, 5-HT2A receptors; conditions: reference compounds marked *; values from H. Pertz (1996) Planta Med. 62, pp. 387-392; cited from earlier work

T1 sequence (P14842 whole entry): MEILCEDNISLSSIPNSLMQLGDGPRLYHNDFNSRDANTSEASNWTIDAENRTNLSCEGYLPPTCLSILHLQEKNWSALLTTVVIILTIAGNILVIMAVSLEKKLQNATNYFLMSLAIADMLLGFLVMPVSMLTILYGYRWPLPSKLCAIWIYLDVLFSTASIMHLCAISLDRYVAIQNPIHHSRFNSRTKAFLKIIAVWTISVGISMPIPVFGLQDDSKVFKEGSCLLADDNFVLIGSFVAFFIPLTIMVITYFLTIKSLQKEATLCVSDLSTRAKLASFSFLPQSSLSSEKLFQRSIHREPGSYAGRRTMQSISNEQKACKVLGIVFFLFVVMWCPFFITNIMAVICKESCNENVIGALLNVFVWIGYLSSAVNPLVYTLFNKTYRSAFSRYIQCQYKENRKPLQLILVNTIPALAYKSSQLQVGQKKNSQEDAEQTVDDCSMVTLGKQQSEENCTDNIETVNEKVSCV

Row | SMILES | 5-HT2B pA2 value (5-HT2B receptors) | other results
1 | C=CCn1cc2c3c(cccc31)[C@H]1C[C@@H](C)CN(C)[C@@H]1C2 [1-Allyl festuclavine] | 6.74 | 5-HT2A pA2 value (5-HT2A receptors [1]): 7.89
2 | CCN(CC)C(=O)N[C@H]1C=C2c3cccc4[nH]cc(c34)C[C@H]2N(C)C1 [Lisuride, reference compound] | 10.32 | 
3 | C=CCn1cc2c3c(cccc31)C1=C[C@@H](C(=O)N[C@]3(C)O[C@@]4(O)C5CCCN5C(=O)[C@H](Cc5ccccc5)N4C3=O)CN(C)[C@@H]1C2 (stereo partly shown) [1-Allyl ergotamine] |  | 5-HT2B -logKp, calculated according to Kenakin (5-HT2B receptors; printed in the pA2 column, marked **): 9.11**
4 | C=CCn1cc2c3c(cccc31)[C@@H]1C[C@H](NC(=O)N(CC)CC)CN(C)[C@H]1C2 [1-Allyl terguride, 1-allyl-(5R,8S,10R)-terguride] | 7.67 | Kb (5-HT2A receptors [1]): 2 nM
5 | C=CCn1cc2c3c(cccc31)C1=C[C@@H](CO)CN(C)[C@@H]1C2 [1-Allyl-lysergol, 1-Allyl lysergol] | 7.61 | Kb (5-HT2A receptors [1]): 3.55 nM
6 | C=CCn1cc2c3c(cccc31)[C@H]1C[C@@H](C(=O)N[C@]3(C)O[C@@]4(O)C5CCCN5C(=O)[C@H](Cc5ccccc5)N4C3=O)CN(C)[C@@H]1C2 (stereo partly shown) [1-Allyl dihydroergotamine] | 9.30 | 
7 | CCN(CC)C(=O)N[C@H]1C[C@@H]2c3cccc4[nH]cc(c34)C[C@H]2N(C)C1 [Terguride, reference compound] | 8.49 | 5-HT2A pA2 value (5-HT2A receptors [1]): 8.38
8 | CN1C[C@H](CO)C=C2c3cccc4[nH]cc(c34)C[C@H]21 [Lysergol] |  | 5-HT2A pA2 value (5-HT2A receptors [2]): 6.88
9 | C=CCn1cc2c3c(cccc31)C1=CC(NC(=O)N(CC)CC)CN(C)C1C2 (stereo not shown) [1-Allyl lisuride] | 8.17 | 
